Reference: EP3241555A1, “USE OF PYROPHOSPHATE ION ANALOGUES FOR THE TREATMENT OF HPV INFECTION” (Agencia Pública Empresarial Sanitaria Costa Del Sol, priority 2014, dated 2016)
Where “and” joins values, the source holds several entries; their conditions need not be identical. Identical values can stand only once.

What was measured:
HPV [1] = assay: Expanded trial in 28 patients with warts treated with topical foscarnet; format: in vivo, human
Description: A total of 28 patients, from which 64.3% are female patients and 35.7% male patients to whom treatment was administered, were studied. The mean age was […] (6-64) and with a median age of 16 years.
It is important to point out that 96.4% of the patients had received prior treatments without any results, where the most common treatments are cryotherapy involving 78.6% of said patients and topical keratolytic drugs involving 67.9% of them.
Most of the patients (71.4%) applied the treatment 2 times a day and in 78.6% of the cases, the area of application was banded for the night. The rest of the patients applied the treatment 1 or 3 times/day.
The mean duration of the treatment was 11.57 (3-28) weeks.

HPV [2] = details: used topically, master formulation as a cream; different types of viral warts; cited from earlier work
[3] = target: HIV reverse transcriptase (HIV, RT) (Human immunodeficiency virus type 1 group M subtype B, UniProt P04585); details: read-out: ID50; cited from earlier work

**Q.** Which results are given for `O=C(O)P(=O)(O)O` [foscarnet, phosphonoformic acid]?
**A.** Adverse effects to treatment: No, Percentage (HPV [1]; 28 patients): 89.3%; Adverse effects to treatment: No, Percentage valid (HPV [1]; 28 patients): 89.3%; Adverse effects to treatment: Yes, Percentage valid (HPV [1]; 28 patients): 10.7%; Response to treatment: Complete, Percentage (HPV [1]; 28 patients): 39.3%; Response to treatment: Complete, Percentage valid (HPV [1]; 28 patients): 39.3%; Response to treatment: No, Percentage (HPV [1]; 28 patients): 28.6%; Response to treatment: No, Percentage valid (HPV [1]; 28 patients): 28.6%; Response to treatment: Partial, Percentage (HPV [1]; 28 patients): 32.1%; Response to treatment: Partial, Percentage valid (HPV [1]; 28 patients): 32.1%; percentage of response (HPV [1]; 28 patients, full plus partial response): 71.4%; Adverse effects to treatment: Yes, Percentage (HPV [1]; 28 patients, very mild localized adverse effects (erythema or slight irritation/itch)): 10.7%; Time effect starts (weeks), Maximum (HPV [1]; N valid 28): 16 weeks; Time effect starts (weeks), Mean (HPV [1]; N valid 28): 5.25 (± 4.98) weeks and 5.25 weeks; Time effect starts (weeks), Median (HPV [1]; N valid 28): 4.00 weeks; Time effect starts (weeks), Minimum (HPV [1]; N valid 28): 0 weeks; Adverse effects to treatment: No, Frequency (HPV [1]; number of patients out of 28): 25; Response to treatment: Complete, Frequency (HPV [1]; number of patients out of 28): 11; Response to treatment: No, Frequency (HPV [1]; number of patients out of 28): 8; Response to treatment: Partial, Frequency (HPV [1]; number of patients out of 28): 9; Recurrence: No, Frequency (HPV [1]; number of patients out of 28, 1 lost): 27; Adverse effects to treatment: Yes, Frequency (HPV [1]; number of patients out of 28, very mild localized adverse effects (erythema or slight irritation/itch)): 3; Recurrence: No, Percentage valid (HPV [1]; of 27 valid patients): 100.0%; Recurrence: No, Percentage (HPV [1]; of 28 patients, 1 lost): 96.4%

**Q.** Which cure rates (HPV [2]) does the source give for `Nc1ccn(C[C@@H](CO)OCP(=O)(O)O)c(=O)n1` [cidofovir] here?
**A.** The cure rates was “high cure rates”.

**Q.** For `O=C(O)P(=O)(O)O` [Trisodium phosphonoformate], which IC50 [3] is on record?
**A.** The IC50 was about 1000 nM.
